Experimental findings from US5506256A, “Proline derivatives possessing prolyl endopeptidase-inhibitory activity” (Yoshitomi Pharmaceutical Industries, Ltd., priority 1990, dated 1996) are described below.

Molecules are shown by their SMILES.

One test concerns the target T1, elastase (Sus scrofa, UniProt P00772).
T1 construct: purchased Sigma; host or cells: swine pancreas
Description: Determination of elastase-inhibitory activity. The test is classed as biochemical, swine. The following applies: read-out: inhibition rate, elastase. On the procedure:
(§1) The methods for the measurement of inhibitory activities against various proteases and the method for calculating the inhibition rate are as follows.
Determination of elastase-inhibitory activity
Similarly, by following the procedure mentioned above, but employing a 1 mM Tris-HCl buffer (pH 8.5) as a buffer for measurement, a 0.2 μM solution of elastase (derived from swine pancreas, Sigma) in the same buffer as an enzyme solution and a 200 μM solution of 7-(N-succinyl-aranyl-prolyl-aranyl)-4-methylcoumarinamide (Peptide Institute, Inc.) in the same buffer as a substrate solution, each fluorescence (e1, e2 and e3) was determined, respectively.
(§2) Using the fluorescence x1, x2 and x3 measured in the abovementioned manner, the inhibitory rate against various proteases was calculated by the following formula where x stands for b, c, d, e or f: [formula]

The next test relates to leucine aminopeptidase. Description: Determination of leucine aminopeptidase-inhibitory activity. The test is classed as biochemical, swine. Details: unit not given here. On the procedure: as §1
Determination of leucine aminopeptidase-inhibitory activity
Similarly, by following the procedure mentioned above, but employing a 50 mM Tris-HCl buffer (pH 8.0) as a buffer for measurement, a […] solution of leucine aminopeptidase (derived from swine kidney, Sigma) in the same buffer as an enzyme solution and a 200 μM solution of 7-leucyl-4-methyl-coumarinamide (Peptide Institute, Inc.) in the same buffer as a substrate solution, each fluorescence (d1, d2 and d3) was determined, respectively.
as §2

The target in another test is T2, cathepsin B (Bos taurus, UniProt P07688).
T2 construct: purchased Sigma; host or cells: bovine spleen
Description: Determination of cathepsin B-inhibitory activity. The following applies: read-out: inhibition rate, cathepsin B. The test is classed as biochemical, bovine. On the procedure: as §1
Determination of cathepsin B-inhibitory activity
Similarly, by following the procedure mentioned above, but employing a 100 mM sodium phosphate buffer (pH 6.0; containing 1.33 mM EDTA Na2) as a buffer for measurement, a 0.02 μM solution of cathepsin B (derived from bovine spleen, Sigma) in the same buffer as an enzyme solution and a 200 μM solution of 7-(N-benzyloxycarbonyl-phenylaranyl-arginyl)-4-methylcoumarinamide (Peptide Institute, Inc.) in the same buffer as a substrate solution, each fluorescence (f1, f2 and f3) was determined, respectively.
as §2

A further test deals with T3, trypsin (Bos taurus, UniProt P00760).
T3 construct: purchased Sigma; host or cells: bovine pancreas
T3 sequence (P00760 24-246): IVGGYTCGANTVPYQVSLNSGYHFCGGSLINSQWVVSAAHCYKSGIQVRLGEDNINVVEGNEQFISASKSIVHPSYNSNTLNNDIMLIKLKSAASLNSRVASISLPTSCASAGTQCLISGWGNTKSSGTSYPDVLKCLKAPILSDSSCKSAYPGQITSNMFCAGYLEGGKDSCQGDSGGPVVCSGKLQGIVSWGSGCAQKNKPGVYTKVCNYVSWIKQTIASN
Description: Determination of trypsin-inhibitory activity. The following applies: read-out: inhibition rate, trypsin. The class given is biochemical, bovine. The procedure:
as §1
Determination of trypsin-inhibitory activity
In the present invention, a 50 mM Tris-HCl buffer (pH 8.0) was employed as a buffer for measurement.
To a mixture of the above-mentioned buffer (850 μl), a solution of the compounds of the present invention in the same buffer (50 μl) and a 0.02 μM solution of trypsin (derived from bovine pancreas, Sigma) in the same buffer (50 μl) was added a 200 μM solution of 7-(prolyl-phenylaranyl-arginyl)-4-methylcoumarinamide (Peptide Institute, Inc.) in the same buffer (50 μl),and the mixture was incubated at 30° C. for 1 hour. The reaction mixture was immersed in ice (0° C.) to terminate the reaction, and the fluorescence (b1) was determined 1 hour later (excitation at 370 nm and emission at 440 nm). Concurrently, there were conducted the experiment wherein, in the system above, the trypsin solution was substituted for a buffer alone, and the experiment wherein the solution of the compounds of the present invention was substituted for a buffer above. Each fluorescence (b2 and b3) was determined respectively.
as §2

In a further test the target is T4, chymotrypsin (Bos taurus, UniProt P00766).
T4 construct: purchased Sigma; host or cells: bovine pancreas
Put plainly: Determination of chymotrypsin-inhibitory activity. Conditions: read-out: inhibition rate, chymotrypsin. The class given is biochemical, bovine. The procedure: as §1
Determination of chymotrypsin-inhibitory activity
Similarly, by following the procedure mentioned above, but employing a 50 mM Tris-HCl buffer (pH 8.0) as a buffer for measurement, a 0.2 μM solution of chymotrypsin (derived from bovine pancreas, Sigma) in the same buffer as an enzyme solution and a […] solution of 7-(N-succinyl-leucyl-leucyl-valyl-tyrosyl)-4-methylcoumarinamide (Peptide Institute, Inc.) in the same buffer as a substrate solution, each fluorescence (c1, c2 and c3) was determined, respectively.
as §2

The next test concerns the target T5, prolyl endopeptidase (Rattus norvegicus, UniProt O70196).
T5 construct: prolyl endopeptidase extracted from rat brain; from tissue; host or cells: rat brain
Description: Prolyl endopeptidase-inhibitory activity. The class given is biochemical. Conditions: for inhibition at 1 µM / inhibition at 0.1 µM: read-out: inhibition rate, prolyl endopeptidase; for IC50: prolyl endopeptidase extracted from rat brain, pH 7.0, 30° C., read-out: IC50. The procedure: Prolyl endopeptidase-inhibitory activity
A mixture of a 0.1M potassium sodium phosphate buffer (pH 7.0) (2675 μl), a solution of the compounds of the present invention in a 0.1M potassium sodium phosphate buffer (pH 7.0) (100 μl) and a solution of prolyl endopeptidase extracted from rat brain in a 25 mM sodium phosphate buffer (100 μl) [123 unit/1, pH 6.8, containing 1 mM dithiothreitol and 0.5 mM EDTA, prepared by the method described in J. Neurochem., 35, 527 (1980)]was preincubated at 30° C. for 30 minutes. Thereto was added a 0.2 mM solution of 7-(N-succinyl-glycyl-prolyl)-4-methylcoumarinamide (Peptide Institute, INC.) in a 0.1M potassium sodium phosphate buffer (pH 7.0) (125 μl), and the mixture was incubated at 30° C. for 1 hour. The reaction mixture was immersed in ice (0° C.) to terminate the reaction, and the fluorescence (a1) was determined ten minutes later (excitation at 370 nm and emission at 440 nm). Concurrently, there were conducted the experiment wherein, in the above system, the prolyl endopeptidase solution was substituted for a 25 mM sodium phosphate buffer (pH 6.8, containing 1 mM dithiothreitol and 0.5 mM EDTA) and the experiment wherein the solution of the compounds of the present invention was substituted for a 0.1M potassium sodium phosphate buffer (pH 7.0). Each fluorescence (a2 and a3) was determined respectively [See Tanpakushitsu Kakusan Koso, 29, 127 (1984)]. The prolyl endopeptidase-inhibition rate was calculated by the following formula, and IC50, a concentration of a compound producing 50% inhibition, was estimated by semilogarithmic graph paper. [formula] […]

T5 sequence (O70196 whole entry): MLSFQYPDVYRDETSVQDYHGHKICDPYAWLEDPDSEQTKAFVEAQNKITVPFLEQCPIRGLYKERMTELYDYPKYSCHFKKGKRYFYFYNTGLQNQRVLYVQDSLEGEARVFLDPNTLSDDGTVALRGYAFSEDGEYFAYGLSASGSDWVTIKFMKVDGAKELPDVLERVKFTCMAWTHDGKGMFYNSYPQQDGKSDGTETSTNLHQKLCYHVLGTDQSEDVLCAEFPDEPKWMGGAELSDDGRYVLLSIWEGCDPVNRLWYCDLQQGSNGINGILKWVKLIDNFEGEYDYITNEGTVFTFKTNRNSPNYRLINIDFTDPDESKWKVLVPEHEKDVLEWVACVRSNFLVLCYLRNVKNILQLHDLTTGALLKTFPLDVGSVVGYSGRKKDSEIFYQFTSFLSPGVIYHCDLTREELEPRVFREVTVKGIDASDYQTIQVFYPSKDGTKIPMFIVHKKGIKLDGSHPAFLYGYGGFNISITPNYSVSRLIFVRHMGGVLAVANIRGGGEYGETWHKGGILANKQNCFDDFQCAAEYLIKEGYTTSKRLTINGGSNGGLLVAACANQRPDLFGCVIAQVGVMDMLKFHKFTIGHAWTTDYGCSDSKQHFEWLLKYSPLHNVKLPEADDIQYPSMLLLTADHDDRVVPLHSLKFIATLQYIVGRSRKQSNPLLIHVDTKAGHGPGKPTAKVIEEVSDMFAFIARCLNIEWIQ
T1 sequence (P00772 27-266): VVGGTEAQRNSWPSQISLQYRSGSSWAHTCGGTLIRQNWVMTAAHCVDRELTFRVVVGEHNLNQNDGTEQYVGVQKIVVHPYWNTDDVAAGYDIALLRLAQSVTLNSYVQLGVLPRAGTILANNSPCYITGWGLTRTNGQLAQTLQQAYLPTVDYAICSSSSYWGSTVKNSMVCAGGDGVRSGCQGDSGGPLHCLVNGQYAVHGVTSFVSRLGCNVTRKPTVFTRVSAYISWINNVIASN

For `COc1ccc(OCC(=O)[C@@H]2CCCN2C(=O)[C@@H]2CCCN2C(=O)CCc2ccccc2)cc1` [Compound 20, (2S)-2-[(4-Methoxyphenoxy)acetyl]-1-[N-(3-phenylpropionyl)-L-prolyl]pyrrolidine], the inhibition at 1 µM on elastase came out at 0%; on cathepsin B, 0%; on trypsin, 0%; on chymotrypsin, 0%; at prolyl endopeptidase, 96%. In the test with leucine aminopeptidase (1 μM), the “inhibition rate, leucine aminopeptidase” value stood at 0. The IC50 at prolyl endopeptidase is 40 nM.

As for `O=C(COc1ccccc1)[C@@H]1CCCN1C(=O)[C@@H]1CCCN1C(=O)NCc1ccccc1` [Compound 21, (2S)-1-(N-Benzylaminocarbonyl-L-prolyl)-2-(phenoxyacetyl)-pyrrolidine], the inhibition at 1 µM worked out at 0% at elastase; 0% on cathepsin B; 0% on trypsin; 0% on chymotrypsin; 99% at prolyl endopeptidase. For the same molecule, in the test with leucine aminopeptidase (1 μM), the “inhibition rate, leucine aminopeptidase” value is on record as 0. For the same molecule, at prolyl endopeptidase, the IC50 worked out at 15 nM.

Take `COc1ccc(OCC(=O)[C@@H]2CCCN2C(=O)[C@@H]2CCCN2C(=O)NCc2ccccc2)cc1` [Compound 22, (2S)-1-(N-Benzylaminocarbonyl-L-prolyl)-2-(4-methoxyphenoxyacetyl)pyrrolidine]: the inhibition at 1 µM at elastase was determined as 0%; on cathepsin B, 0%; on trypsin it was 0%; at chymotrypsin, 0%; at prolyl endopeptidase, 97%. For the same molecule, the “inhibition rate, leucine aminopeptidase” value in the test on leucine aminopeptidase (1 μM) is reported as 0. The IC50 at prolyl endopeptidase is 25 nM.

For the molecule `COc1ccc([S@@+]([O-])CC(=O)[C@@H]2CCCN2C(=O)[C@@H]2CCCN2C(=O)NCc2ccccc2)cc1` [Compound 23, (2S)-1-(N-Benzylaminocarbonyl-L-prolyl)-2-{[(S)-4-methoxyphenylsulfinyl]acetyl}pyrrolidine], the inhibition at 1 µM was determined as 0% at elastase; 0% on cathepsin B; 0% at trypsin; 0% at chymotrypsin; 99% at prolyl endopeptidase. The “inhibition rate, leucine aminopeptidase” value in the test on leucine aminopeptidase (1 μM) is reported as 0. For the same molecule, the IC50 at prolyl endopeptidase came out at 15 nM.

Take `COc1ccc(CNC(=O)N2CCC[C@H]2C(=O)N2CCC[C@H]2C(=O)C[S@+]([O-])c2ccc(OC)cc2)cc1` [Compound 24, (2S)-1-[N-(4-Methoxybenzylaminocarbonyl)-L-prolyl]-2-{[(S)-4-methoxyphenylsulfinyl]acetyl}pyrrolidine]: the inhibition at 0.1 µM at elastase came to 0%; on cathepsin B, 0%; at trypsin, 0%; at chymotrypsin, 0%; on prolyl endopeptidase, 99%. Also, the “inhibition rate, leucine aminopeptidase” value in the test on leucine aminopeptidase (0.1 μM) is 0. For the same molecule, the IC50 on prolyl endopeptidase is 0.5 nM.

On to `COc1ccc(CNC(=O)N2CCC[C@H]2C(=O)N2CCC[C@H]2C(=O)COc2ccc(OC)cc2)cc1` [Compound 25, (2S)-1-[N-(4-Methoxybenzylaminocarbonyl)-L-prolyl]-2-(4-methoxyphenoxyacetyl)pyrrolidine], for which the inhibition at 0.1 µM on elastase worked out at 0%; at cathepsin B, 0%; on trypsin it was 0%; on chymotrypsin, 0%; on prolyl endopeptidase it was 97%. For the same molecule, the “inhibition rate, leucine aminopeptidase” value with leucine aminopeptidase (0.1 μM) amounted to 0. At prolyl endopeptidase, the IC50 stood at 2.5 nM.

In the case of `O=C(COc1ccc(Cl)cc1)[C@@H]1CCCN1C(=O)[C@@H]1CCCN1C(=O)CCc1ccccc1` [Compound 26, (2S)-2-(4-Chlorophenoxyacetyl)-1-[N-(3-phenylpropionyl)-L-prolyl]pyrrolidine], the inhibition at 1 µM amounted to 0% on elastase; 0% on cathepsin B; 0% at trypsin; 0% on chymotrypsin; 99% at prolyl endopeptidase. In the test on leucine aminopeptidase (1 μM), the “inhibition rate, leucine aminopeptidase” value turned out to be 0. Also, the IC50 on prolyl endopeptidase worked out at 4.5 nM.

Turning to `O=C(COc1ccc(O)cc1)[C@@H]1CCCN1C(=O)[C@@H]1CCCN1C(=O)CCc1ccccc1` [Compound 27, (2S)-2-(4-Hydroxyphenoxyacetyl)-l-[N-(3-phenylpropionyl)-L-prolyl]pyrrolidine], the inhibition at 0.1 µM was found to be 0% on elastase; 0% at cathepsin B; 0% at trypsin; 0% on chymotrypsin; 96% on prolyl endopeptidase. In addition, the “inhibition rate, leucine aminopeptidase” value in the test with leucine aminopeptidase (0.1 μM) turned out to be 0. In addition, the IC50 on prolyl endopeptidase came to 2.5 nM.

As for `O=C(COc1ccc(Cl)cc1)[C@@H]1CCCN1C(=O)[C@@H]1CCCN1C(=O)NCc1ccc(Cl)cc1` [Compound 28, (2S)-1-[N-(4-Chlorobenzylaminocarbonyl)-L-prolyl]-2-(4-chlorophenoxyacetyl)pyrrolidine], the inhibition at 0.1 µM turned out to be 0% at elastase; 0% on cathepsin B; 0% on trypsin; 0% at chymotrypsin; 97% at prolyl endopeptidase. Also, the “inhibition rate, leucine aminopeptidase” value with leucine aminopeptidase (0.1 μM) amounted to 0. For the same molecule, the IC50 at prolyl endopeptidase came out at 15 nM.

In the case of `O=C(COc1ccc(F)cc1)[C@@H]1CCCN1C(=O)[C@@H]1CCCN1C(=O)NCc1ccc(F)cc1` [Compound 29, (2S)-1-[N-(4-Fluorobenzylaminocarbonyl)-L-prolyl]-2-(4-fluorophenoxyacetyl)pyrrolidine], the inhibition at 0.1 µM on elastase is 0%; on cathepsin B, 0%; at trypsin, 0%; at chymotrypsin it was 0%; on prolyl endopeptidase it was 99%. Besides, the “inhibition rate, leucine aminopeptidase” value with leucine aminopeptidase (0.1 μM) amounted to 0. Also, the IC50 on prolyl endopeptidase came out at 0.1 nM.
